Source: patent US20240115496A1, “A COMPOUND DRY POWDER INHALANT AND USE THEREOF” (TIANJIN UNIVERSITY OF TRADITIONAL CHINESE MEDICINE, priority 2021, published 2024)
Where a name gives a salt, the structure may show the parent alone.

What was measured:
[1] = In vivo pharmacokinetics, lung tissue homogenate (UPLC-MS/MS); design: species or system rat; details: for CL/F (clearance) / Cmax / Tmax / half-life / MRT last: AH in rat lung tissue; for concentration at 2 min / concentration at 4 min / concentration at 10 min / concentration at 15 min / concentration at 30 min / concentration at 60 min / concentration at 120 min / concentration at 240 min / concentration at 360 min / Cmax / Tmax / half-life / MRT last: male; for concentration at 2 min / concentration at 4 min / concentration at 10 min / concentration at 15 min / concentration at 30 min / concentration at 60 min / concentration at 120 min / concentration at 240 min / concentration at 360 min: rat lung tissue homogenate, read-out: Drug concentration of AH in lung tissue; for Cmax / Tmax / half-life / MRT last: lung tissue (homogenate supernatant); for half-life: read-out: HLz (biological half-life) (converted); for MRT last: read-out: MRTlast (mean retention time)
Method: (§1) SPF-grade healthy SD male rats, body weight 180-220 g, purchased from SPF (Beijing) Biotechnology Co., Ltd (Certificate No. SCXK (Beijing) 2019-0010), were conventionally reared under (23±2)° C., humidity: (50±10)%. This study was conducted with the approval of the Animal Experiment Center of Tianjin University of Traditional Chinese Medicine.
(§2) 108 SPF-grade SD male rats were randomly divided into tail intravenous injection group and pulmonary administration group, with 9 time points of 2 min, 4 min, 10 min, 15 min, 30 min, 1 h, 2 h, 4 h and 6 h per group, 6 rats per time point per group. The rats were fasted for 12 h before the experiment, with water provided. The rats were weighed (to calculate the dose) and numbered, and both groups were intraperitoneally injected with 10% chloral hydrate at a dose of 2 mL/kg. Group 1 was administered BA/AH-DPI saline solution by tail intravenous injection at a dose of 9 mg/kg. Group 2 was administered 3 mg of BA/AH-DPI fine powder at the same dose by spray administration with a DP-4 tracheal insufflator (1.5 mL of air was pushed each time, 3-4 times consecutively). Blood was sampled from the abdominal aorta of the rats in both groups at the above time points after drug administration, and the rats were executed. The obtained whole blood was placed in a centrifuge tube with sodium heparin, centrifuged at 4000 r/min for 10 min, and the upper layer of plasma was separated and stored a refrigerator at −80° C. After blood collection, the thoracic cavity was quickly opened and the lungs of the rats were isolated. The small amount of floating blood on the surface of the lung tissue was washed with saline in an ice bath. The surface of the lung tissue was blotted with filter paper. The trachea was cut off, wrapped in tin foil and placed in a 10 mL centrifuge tube. The lung was weighed precisely, and stored in a refrigerator at −80° C.
The lung tissues were added to saline in a weight to volume ratio of 1:4 (g:mL). A homogenate was obtained by beating, dispersing and evenly grinding with a homogenizer under an ice water bath, and centrifuged at 6500 r/min for 20 min to obtain the supernatant of the lung tissue homogenate.
(§3) 100 μL of the plasma sample or lung tissue supernatant was precisely absorbed, and 200 μL (100 ng/mL) of methanol solution containing the internal standard was added. The mixture was vortexed and mixed for 3 min, and centrifuged at 12000 r/min for 10 min to obtain the supernatant as the finished sample. The contents of BA and AH were determined by UPLC-MS/MS method.
(§4) Electrospray ion source (ESI source); scan mode: positive (ESI+) detection; detection mode: multi-reactive ion monitoring (MRM). Electrospray voltage: 4 kV; atomization gas: N2; spray gas flow rate (Gas1): 15 psi; ion source temperature: 300° C.
(§5) Meaning of pharmacokinetic parameters: HLz was the biological half-life, i.e., the time required for the amount or blood concentration of the drug in the body to decrease by half; Tmax was the time to peak, i.e., the time required to reach the peak concentration of the drug after administration. Cmax was the peak drug concentration, i.e., the highest blood concentration that occurred after administration of the drug. AUC was the area enclosed by the blood drug concentration curve against the time axis. Vz/F was the apparent volume of distribution, the ratio constant of the amount of drug in the body to the blood concentration when the drug reached dynamic equilibrium in the body. CL/F was the clearance, i.e., the number of apparent volume of distribution of the drug removed from the body per unit time. AUMC was the first order moment of the drug-time curve, i.e. the area under the curse of the product of time and blood concentration versus time. MRTlast was the mean retention time, i.e., the average of the residence time of drug molecules in the body.

[2] = In vivo pharmacokinetics, plasma (UPLC-MS/MS); design: species or system rat; details: for half-life: read-out: HLz (biological half-life) (converted); for MRT last: read-out: MRTlast (mean retention time); for concentration at 2 min / concentration at 10 min / concentration at 15 min / concentration at 30 min / concentration at 60 min / concentration at 120 min / concentration at 240 min / concentration at 360 min / concentration at 4 min: read-out: Blood concentration of AH
Method: as §1, §2, §3, §4, §5

[3] = Particle size distribution test, laser particle size analyzer, dry dispersion; type: physicochemical
Method: The particle size distribution of DPI dry powder was measured by dry dispersion method using laser particle size analyzer, and Dv10, Dv50, Dv90, VMD (Volume median diameter) and SMD (Sauter mean diameter) were determined, respectively.

[4] = Sprague-Dawley (SD), inhaled, pulmonary administration BA/AH-DPI 9 mg/kg
[5] = Sprague-Dawley (SD), inhaled or intranasal, pulmonary administration group, BA/AH-DPI 9 mg/kg
[6] = Sprague-Dawley (SD), tail intravenous injection group, 9 mg/kg
[7] = Sprague-Dawley (SD), tail intravenous injection BA/AH-DPI saline solution 9 mg/kg
[8] = male, SD, inhaled or intranasal, AH in rat plasma, pulmonary administration group, BA/AH-DPI 9 mg/kg
[9] = male, SD, inhaled, rat plasma, pulmonary administration BA/AH-DPI 9 mg/kg
[10] = male, SD, AH in rat plasma, tail intravenous injection group, 9 mg/kg
[11] = male, SD, rat plasma, tail intravenous injection BA/AH-DPI saline solution 9 mg/kg
[12] = male, Sprague-Dawley (SD), rat plasma, tail intravenous injection BA/AH-DPI saline solution 9 mg/kg

Nc1c(Br)cc(Br)cc1CNC1CCC(O)CC1 (stereo not drawn) [AH, ambroxol hydrochloride]
CL/F (clearance) ([1]; pulmonary administration group, BA/AH-DPI 9 mg/kg): 876.24 ± 146.55 g/h/kg
CL/F (clearance) ([1]; tail intravenous injection group, 9 mg/kg): 1454.72 ± 257.24 g/h/kg
concentration at 2 min ([1]; SD, tail intravenous injection BA/AH-DPI saline solution 9 mg/kg): 3230 ± 973 ng/mL
concentration at 2 min [1, 4]: 7610 ± 1750 ng/mL
concentration at 4 min [1, 4]: 5150 ± 879 ng/mL
concentration at 10 min [1, 4]: 2450 ± 384 ng/mL
concentration at 15 min [1, 4]: 1320 ± 524 ng/mL
concentration at 30 min [1, 4]: 798 ± 289 ng/mL
concentration at 60 min [1, 4]: 503 ± 200 ng/mL
concentration at 120 min [1, 4]: 256 ± 139 ng/mL
concentration at 240 min [1, 4]: 153 ± 60 ng/mL
concentration at 360 min [1, 4]: 66.2 ± 38.2 ng/mL
Cmax [1, 5]: 30400 ± 6970 ng/g
Tmax [1, 5]: 2.34 ± 0.78 min
half-life [1, 5]: 91.8 ± 26.4 min
MRT last [1, 5]: 72.6 ± 12 min
Cmax [1, 6]: 12900 ± 3890 ng/g
Tmax [1, 6]: 1.98 min
half-life [1, 6]: 72.6 ± 11.4 min
MRT last [1, 6]: 60.6 ± 7.2 min
concentration at 4 min [1, 7]: 1780 ± 454 ng/mL
concentration at 10 min [1, 7]: 1230 ± 183 ng/mL
concentration at 15 min [1, 7]: 1030 ± 210 ng/mL
concentration at 30 min [1, 7]: 780 ± 243 ng/mL
concentration at 60 min [1, 7]: 352 ± 83.1 ng/mL
concentration at 120 min [1, 7]: 135 ± 58.9 ng/mL
concentration at 240 min [1, 7]: 68.4 ± 24.5 ng/mL
concentration at 360 min [1, 7]: 23.4 ± 10.5 ng/mL
CL/F (clearance) ([2]; AH in rat plasma, tail intravenous injection group, 9 mg/kg): 169.3805 ± 53.272 mL/min/kg
Cmax [2, 8]: 1770 ± 382 ng/mL
CL/F ([2]; male, SD, inhaled or intranasal, AH in rat plasma, pulmonary administration group, BA/AH-DPI 9 mg/kg, read-out: CL/F (clearance) (converted)): 237 mL/min/kg
half-life [2, 8]: 109 ± 39.6 min
MRT last [2, 8]: 49.8 ± 6 min
Vd/F ([2]; male, SD, inhaled or intranasal, AH in rat plasma, pulmonary administration group, BA/AH-DPI 9 mg/kg, read-out: Vz/F (apparent volume of distribution)): 37.2 ± 15.6 L/kg
bioavailability ([2]; male, SD, inhaled, rat plasma, pulmonary administration of BA/AH-DPI vs tail intravenous injection, 9 mg/kg, read-out: Absolute bioavailability): 53.5%
concentration at 2 min [2, 9]: 763 ± 101 ng/mL
concentration at 10 min [2, 9]: 1130 ± 170 ng/mL
concentration at 15 min [2, 9]: 464 ± 191 ng/mL
concentration at 30 min [2, 9]: 280 ± 75.8 ng/mL
concentration at 60 min [2, 9]: 124 ± 35.3 ng/mL
concentration at 120 min [2, 9]: 40.2 ± 21.1 ng/mL
concentration at 240 min [2, 9]: 21 ± 6.64 ng/mL
concentration at 360 min [2, 9]: 8.57 ± 0.38 ng/mL
Cmax [2, 10]: 3300 ± 1440 ng/mL
Tmax [2, 10]: 1.98 min
half-life [2, 10]: 146 ± 53.4 min
MRT last [2, 10]: 49.2 ± 10.2 min
concentration at 10 min [2, 11]: 395 ± 142 ng/mL
concentration at 15 min [2, 11]: 306 ± 140 ng/mL
concentration at 30 min [2, 11]: 252 ± 116 ng/mL
concentration at 60 min [2, 11]: 148 ± 58.7 ng/mL
concentration at 120 min [2, 11]: 49.4 ± 23 ng/mL
concentration at 240 min [2, 11]: 33.9 ± 12.2 ng/mL
concentration at 360 min [2, 11]: 18.9 ± 6.61 ng/mL
Tmax ([2]; male, Sprague-Dawley (SD), inhaled or intranasal, AH in rat plasma, pulmonary administration group, BA/AH-DPI 9 mg/kg): 4.02 min
concentration at 4 min ([2]; male, Sprague-Dawley (SD), inhaled, rat plasma, pulmonary administration BA/AH-DPI 9 mg/kg): 1770 ± 382 ng/mL
concentration at 2 min [2, 12]: 3300 ± 1690 ng/mL
concentration at 4 min [2, 12]: 598 ± 233 ng/mL
Time of maximum blood concentration in plasma ([2]; rat, pulmonary administration of BA/AH-DPI 9 mg/kg): 4 min
D10 [3]: 0.77 μm
D50 [3]: 3.07 μm
D90 [3]: 8.43 μm
SMD (Sauter mean diameter) [3]: 1.79 μm
VMD (Volume median diameter) [3]: 3.93 μm
<3 μm ([3]; fraction of particles): 49.10%
<5 μm ([3]; fraction of particles): 70.30%
